Assay results: patent US20100247659A1, “PHENYLPHTHALIMIDE ANALOGS FOR TREATING DIABETIC MACULAR EDEMA” (Charlesson, LLC, priority 2007, published 2010)

Assays:
[1] = system: HUVEC; experiment: Endothelial cell migration (invasion) assay; format: cell-based; conditions: Homo sapiens, VEGF 4 ng/ml, invasion through Matrigel, read-out: IC50, inhibition of HUVEC migration
Experimental: Cells were allowed to invade for 22±1 hours. Cells were labeled post invasion with Calcein AM (4 μg/ml) and measured by detecting the fluorescence of cells that invaded through the BD Matrigel™ Matrix with an Applied Biosystems CytoFluor® 4000 plate reader at 485 nm excitation and 530 nm emission.
In this assay system, human endothelial cells are allowed to invade and are then labeled with fluorescent dye Calcein AM before quantification on a fluorometer.
In FIG. 2B, cells were seeded at 5×10^4/insert in EBM-2 containing 0.1% BSA in multi-well inserts. The assembled assays were allowed to proceed for 6 hours. The results are expressed as percent inhibition of migration as compared to control (no inhibitor). Data represents the average of 3 experiments, each run in triplicate. The bars represent mean±SD.

[2] = system: OIR rats; experiment: Retinal vascular leakage in OIR rats, intravitreal injection; format: in vivo, rat; conditions: for retinal vascular leakage as % of contralateral vehicle-injected eyes: intravitreal 5 μl 0.8 mM at P14, measured P16; for reduction of retinal vascular leakage vs vehicle control: single intravitreal 1.0 μg/eye (5 μl 0.8 mM) at P14, measured P16
From the text: Induction of oxygen-induced retinopathy (OIR): Induction of OIR followed the procedure as described by Smith et al (Smith, et al. Invest. Opthalmol. Vis. Sci. 1994, 35: 101-111) with some modifications. Briefly, Newborn Brown Norway (BN) rats (Charles River Laboratories) at postnatal day 7 (P7) were exposed to hyperoxia (75% O2) for 5 days (P7-12) and then returned to normoxia (room air) to induce retinopathy.
(§2) Intravitreal injection of compounds: Thalidomide and the phenylphthalimide analogs Compounds 1, 2 and Compound 4 were dissolved in vehicle (BN rat serum) and sterilized by filtration. OIR and STZ-diabetic BN rats received an intravitreal injection of 0.5-2.0 μg/eye of (5 μl/eye, 0.1-0.4 mg/ml in BN rat serum) of thalidomide, Compounds 1, 2 or Compound 4 into the right eye and the equal volume of the BN rat serum into the left eye.
Measurement of vascular permeability: Vascular permeability was quantified by measuring leakage of FITC-albumin or Evans blue dye-albumin complex from the blood vessels into the retina as described (Xu, et al. Invest. Opthalmol. Vis. Sci. 2001, 42:789-794), with some modifications. Briefly, FITC-albumin was injected through the femoral vein and circulated for 2 h. The rats were then perfused via the left ventricle. The retinas were carefully dissected and homogenized. The concentrations of FITC-albumin were measured in a fluorometer and normalized by the total protein concentration in each retina and by plasma concentration of FITC-albumin.
To induce OIR, BN rats at postnatal day 7 (P7) were exposed to hyperoxia (75% O2) for 5 days (P7-P12) and then returned to normoxia. Normal control rats were kept in room air. At P14, the OIR BN rats received an intravitreal injection of 5 μl (0.8 mM in BN rat serum)/eye of thalidomide, Compound 1, Compound 2, or Compound 4 into the right eye and same volume of the BN rat serum into the left eye. Retinal vascular leakage was measured using FITC-labeled albumin as tracer. Normal non-OIR BN rats (n=6) served as baseline at P16.
To determine if the effect of Compound 4 on retinal vascular leakage was dose-dependent, the OIR rats at P14 received a single injection of Compound 4 with doses of 0.5, 0.75 and 1.0 μg/eye (5 μl of 0.10, 0.15 and 0.20 mg/ml).
In FIG. 7A, OIR rats received an intravitreal injection of 5 μl (0.8 mM in BN rat serum)/eye of thalidomide, Compounds 1, 2, or 4 in the right eye and the same volume of the vehicle in the left eye at P14. Vascular leakage was measured using the FITC-labeled albumin leakage method at P16 and expressed as fd/pr of protein in the retina (mean±SD, n=6). Each of the experimental group was compared with contralateral eye by Student's t test. Retinal vascular leakage in normal non-OIR rats at age of P16 were used as baseline at P16. In FIG. 7B, vascular leakage in the compound-injected eyes was expressed as a percentage of average vascular leakage in the vehicle-injected contralateral eyes. For the control, the average vascular leakage in vehicle-treated retinas was used as 100%. […] In FIGS. 7C and 7D, OIR rats received an intravitreal injection of Compound 4 or thalidomide with doses as indicated at P14. Permeability was measured at P16 and expressed as fd/pr of protein in the retina (mean±SD, n=6). Each of the experimental group was compared with the vehicle control by the paired Student's t test. “Normal” is represented as the permeability in normal rats at P16.

[3] = system: HUVEC; experiment: MTT cell proliferation assay, HUVEC; format: cell-based; conditions: Homo sapiens, 72 h, treated 3 days, read-out: IC50, inhibition of proliferation of HUVEC
From the text: (§1) Cell culture: All cell culture media and supplements were purchased from Cellgro unless otherwise indicated. Human Umbilical Vein Endothelial Cells (HUVEC) were obtained from American Type Culture Collection and grown in the EBM-MV2 medium (Clonetics). Bovine Retinal Endothelial Cells (BREC) and pericytes were isolated according to a modified method as described previously (Wong, et al. Investig. Opthalmol. Vis. Sci. 1987, 28: 1767-1775). Twelve bovine eyes were obtained from a local slaughterhouse (Country Home Meats). The retinas were removed and washed four times in DMEM. Subsequently retinas were homogenized and centrifuged at 400×g for 10 min. The resultant pellet was resuspended in an isolation medium (DMEM with 100 IU/ml penicillin, 100 μg/ml streptomycin and 250 ng/ml amphotericin). Microvessels were trapped on an 85 μm nylon mesh (Locker Wire Weavers LTD) and transferred to a petri dish (Falcon) containing 10 ml of an enzyme cocktail which consisted of 600 μg/ml DNase I (Sigma), 165 μg/ml collagenase (Sigma) and 700 μg/ml Pronase E (EMD) and were incubated at 37° C. for 20 min. The resultant vessel fragments were trapped on a 53 μm nylon mesh (Locker Wire Weavers LTD), washed with the isolation medium and centrifuged at 400×g for 5 min. For selective culture of pericytes, the resultant pellet was resuspended in 10 ml of the pericyte growth medium and transferred into 75-cm^2 plastic tissue culture flasks (BD Biosciences). For selective culture of BRCECs, the resultant pellet was resuspended in 10 ml of the BRCEC growth medium and transferred into 75-cm^2 collagen-coated plastic tissue culture flasks (BD Biosciences). The BRCEC growth medium consisted of DMEM supplemented with 10% human serum, 1% glutamine, 1 mg/ml insulin, 550 μg/ml transferring, 670 ng/ml selenium, 100 IU/ml penicillin, 100 μg/ml streptomycin, 250 ng/ml amphotericin, 90 μg/ml heparin (Sigma) and 15 μg/ml endothelial cell growth supplement (Upstate). Cells were cultured at 37° C. and 5% CO2 with regular medium change every 3 days. Confluence cultures were passaged by detaching the cells with 0.25% trypsin and plated at a split 1:3. […] At passage 2, BRCECs and pericytes were stored in a liquid nitrogen tank for future use.
MTT assay: Cells were seeded at a density of 5×10^4 cells per well in 400 μl of growth medium in triplicate in 24-well plates (Nalge Nunc) or gelatin-coated 24-well plates. Twenty-four hours after seeding, the growth medium was replaced by a medium containing 1% FBS, with or without different concentrations of thalidomide or phenylphthalimide analogs. After the cells were treated for 48-72 h, MTT was added to a final concentration of 0.5 mg of medium per ml and incubated for 4 h at 37° C. in 5% CO2. An equal volume of solubilizer buffer is then added, following the protocol recommended by the manufacturer (Roche Molecular Biochemicals), the cells will be incubated overnight at 37° C. in 5% CO2. The absorbance of the formazen product was measured at a wavelength of 570 nm, with 750 nm as the (subtracted) reference wavelength.
Primary endothelial cells (HUVEC and BRCEC) and pericytes were treated with various concentrations of the compounds for 3 days. Viable cells were quantified using MTT assay and IC50 of each compound was calculated (mean±SD, n=3, FIG. 1). The IC50 values represent the means and SE of 3 independent experiments.

[4] = system: BRCEC; experiment: MTT cell proliferation assay, BRCEC; format: cell-based, bovine; conditions: Bos taurus, 72 h, treated 3 days, read-out: IC50, inhibition of proliferation of BRCEC
From the text: as §1
MTT assay: Cells were seeded at a density of 5×10^4 cells per well in 400 μl of growth medium in triplicate in 24-well plates (Nalge Nunc) or gelatin-coated 24-well plates. […] The absorbance of the formazen product was measured at a wavelength of 570 nm, with 750 nm as the (subtracted) reference wavelength.
Primary endothelial cells (HUVEC and BRCEC) and pericytes were treated with various concentrations of the compounds for 3 days. Viable cells were quantified using MTT assay and IC50 of each compound was calculated (mean±SD, n=3, FIG. 1). […]

[5] = system: CAM blood vessel formation induced by VEGF/bFGF; experiment: Chicken chorioallantoic membrane (CAM) assay; format: in vivo; conditions: 200 ng VEGF-165/bFGF, 48 hr
Experimental: Chicken chorioallantoic membrane (CAM) assay: The fertile Leghorn chicken eggs were incubated in a humidified environment at 37.5° C. for 10 days. […] Anti-angiogenic compounds were then added 8 hr after the VEGF/bFGF at saturation to the same microbial testing disk, and the embryos were incubated for an additional 40 h. CAMs were then removed, quickly fixed with 4% paraformaldehyde in PBS, placed onto Petri dishes, and digitized images taken at 7.5× using a Nikon dissecting microscope and Scion Imaging system. A 1×1-cm grid was then added to the digital CAM images and the average number of vessels within 5-7 grids counted as a measure of vascularity.
CAM assay was used for in vivo anti-angiogenic studies. The fertile leghorn chicken eggs were allowed to incubate in a humidified environment at 37.5° C. for 10 days. […] Anti-angiogenic compounds were then added 8 hours after the VEGF/bFGF at saturation to the same microbial testing disk and embryos allowed to incubate for an additional 40 hours. After 48 hr, CAMs were removed, quickly fixed with 4% paraformaldehyde in PBS, placed onto Petri dishes, and digitized images taken at 7.5× using a Nikon dissecting microscope and Scion Imaging system. A 1×1-cm grid was then added to the digital CAM images and the average number of vessels within 5-7 grids counted as a measure of vascularity.
FIG. 14 is a table comparing the effect of Compound 4 on blood vessel formation. […] Data represent mean±SD of 8-16 samples from 2-3 separate experiments.

[6] = system: HUVECs; experiment: Tube formation assay on matrigel; format: cell-based, human; conditions: 5 μM, 16 h
Experimental: Eight-well slide chambers were coated with matrigel and at 37° C. and 5% CO2 for 30 min. HUVECs were then seeded at 30,000 cells/well in EGM-II containing either vehicle (0.5% DMSO), 5 μM of Compound 4 or thalidomide and incubated at 37° C. and 5% CO2 for 16 h. After incubation, slides were washed in PBS, fixed in 100% methanol for 10 s, and stained with DiffQuick solution II for 2 min. To analyze tube formation, each well was digitally photographed using a ×2.5 objective.
Representative images were captured after incubation of vehicle, thalidomide and Compound 4 for 16 h.

[7] = system: STZ-diabetic rats; experiment: Retinal vascular leakage in STZ-diabetic rats, intravitreal injection; format: in vivo, rat; conditions: for reduction of retinal vascular permeability: two days; for reduction of retinal vascular leakage vs vehicle control: single intravitreal 1.0 μg/eye (5 μl 0.8 mM), 48 h
Experimental: Induction of diabetes by streptozotocin (STZ): BN rats (8 weeks of age) were given a single intraperitoneal injection of fresh made streptozotocin (STZ) (Sigma, 50 mg/kg in 10 mM of citrate buffer, pH 4.5) following an overnight fasting. Control rats received an injection of citrate buffer alone. Blood glucose levels were checked at 24 hours following the last STZ injection and once a week thereafter, and only the animals with glucose levels higher than 350 mg/dl were considered diabetic. Rats with hyperglycemia for 2 weeks were used for these experiments.
as §2
Evans blue dye (Sigma) was dissolved in 0.9% saline (30 mg/ml), sonicated for 5 min and filtered through a 0.45-μm filter (Millipore). The rats were then anesthetized, and Evans blue (30 mg/kg) was injected over 10 s through the femoral vein using a glass capillary under microscopic inspection. Evans blue non-covalently binds to plasma albumin in the blood stream. Immediately after Evans blue infusion, the rats turned visibly blue, confirming their uptake and distribution of the dye. The rats were kept on a warm pad for 2 h to ensure the complete circulation of the dye. Then the chest cavity was opened, and the rats were perfused via the left ventricle with 1% paraformaldehyde in citrate buffer (pH 4.2) which was pre-warmed to 37° C. to prevent vasoconstriction. The perfusion lasted 10 min under the physiological pressure of 120 mmHg, in order to clear the dye from the vessel. Immediately after perfusion, the eyes were enucleated and the retinas were carefully dissected under an operating microscope. Evans blue dye was extracted by incubating each sample in 150 μl of formamide for 18 h at 70° C. The extract was centrifuged (Beckman) at 70,000 rpm (Rotor type: TLA 100.3) for 20 min at 4° C. Absorbance was measured using 100 μl of the supernatant at 620 nm by using Spectrophotometer DU800 (Beckman). The concentration of Evans blue in the extract was calculated from a standard curve of Evans blue in formamide and normalized by the total protein concentration in each sample. Results were expressed in mg of Evans blue per mg of total protein content.
Diabetes was induced by injection of STZ (50 mg/kg, i.v.) into adult BN rats after overnight fasting. Blood glucose levels were monitored at the second day after the injection and once a week thereafter. Rats with glucose levels above 350 mg/dl were considered as diabetic and used for the study. thalidomide, Compounds 1, 2 and 4 were separately injected into the vitreous space (5 μl, 0.8 mM in BN rat serum) of the right eye of STZ-diabetic rats 2 wks after the induction of diabetes. At 48 h after the injection, retinal vascular leakage was measured using the Evans blue-albumin leakage method.
To determine the dose-response relationship of the effect of Compound 4 and thalidomide, the STZ-diabetic rats received an intravitreal injection of Compound 4 and thalidomide with doses of 0.5, 0.75 and 1.0 μg/eye (5 μl/eye of 0.10, 0.15 and 0.20 mg/ml), respectively.

[8] = system: STZ-diabetic rats; conditions: cited from earlier work

Row | SMILES | IC50 [1] [nM] | reduction of retinal vascular leakage ([2]; dose of 0.5 μg/eye) | reduction of retinal vascular leakage ([2]; doses of 0.75 and 1.0 μg/eye) | retinal vascular leakage as % of contralateral vehicle-injected eyes [2] [%] | reduction of retinal vascular leakage vs vehicle control [2] [%] | IC50 [3] [nM] | IC50 [4] [nM] | ED50, dose reducing blood vessel number to 50% of VEGF/bFGF alone group [5] [μg/embryo] | inhibition of tube formation [6] | reduction of retinal vascular permeability ([7]; dose of 0.5 μg/eye) | reduction of retinal vascular permeability ([7]; doses of 0.75 and 1.0 μg/eye) | reduction of retinal vascular leakage vs vehicle control [7] [%] | VEGF in ocular fluid [8] | thickening of retinal capillary basement membrane [8]
1 | O=C1CCC(N2C(=O)c3ccccc3C2=O)C(=O)N1 (stereo not drawn) [thalidomide] | > 100000 | not at the dose of 0.5 μg/eye | significantly reduced vascular leakage | 82 | 18 | > 100000 | > 32000 | > 100 | did not show any inhibitory activity | not at 0.5 μg/eye | showed an inhibitory effect | 77 | blocked the increase of VEGF in ocular fluid | inhibited the thickening of retinal capillary basement membrane
2 | CC(C)c1cccc(C(C)C)c1N1C(=O)c2ccc(N)cc2C1=O [Compound 4] | < 1000 | – | – | 61 | 40 | 2000 | 1830 | 6.5 | – | – | – | ~100 | – | –
